Test [1] deals with GBM, AKT SL (secondary-like) subtype. The test can be described thus: Kaplan Meier survival of TCGA GBM patients receiving or not receiving BCNU and/or CCNU, by AKT subgroup. Particulars: for survival advantage: Secondary-Like patients, CCNU/BCNU; for median survival: TCGA SL patients treated with BCNU or CCNU (vs. other treatments), p=0.03 after correcting for age, log rank; for sensitivity of patients in the SL subgroup: TCGA SL subgroup. The format is in vivo, human. The text has this: FIG. 5 depicts, in accordance with various embodiments of the invention, evidence that SL subtype (AKT subgroup 5) patients are sensitive to alkylating agents BCNU and CCNU. Kaplan Meier survival curves for TCGA patients receiving (solid line) or not receiving (dashed line) alkylating agent (BCNU and/or CCNU) by subgroup. p=0.03 after correcting for age (SL subtype; log rank). n=6 and 16 for SL patients receiving or not receiving BCNU/CCNU, respectively.
The discovery dataset (GBM195) consisted of 181 GBM (WHO grade IV astrocytoma; (159 primary and 22 recurrent) from 3 datasets, [4], [21] and 14 non-neoplastic samples from 2 sources: (1) six samples from patients undergoing temporal lobe epilepsy surgery and (2) eight samples from autopsy specimens of cerebral cortex from donors with no history of neurological disorders obtained from the National Neurological Research Brain Bank (Los Angeles, Calif.). Two datasets are in GEO (GSE4271, GSE4412) and the third has been submitted. Table 1 lists GEO ID's and clinical information for GBM195 tumors. Tissue collection and processing, pathological review, and microarray analysis for the discovery dataset (GBM195) has been described elsewhere ([3] Nigro et al. 2005, [4] Phillips et a. 2006, and [21] Freije et al. 2004, which are incorporated herein by reference in their entirety as though fully set forth.) The validation dataset consisted of 583 samples; 573 GBM (16 recurrent and 3 secondary) and 10 non-neoplastic samples from The Cancer Genome Atlas (TCGA). Samples were collected and processed as described ([5] Atlas TCG 2008, which is incorporated herein by reference in its entirety as though fully set forth.). IRB or Committee on Human Research approval was obtained for samples used in the discovery and validation datasets as described, [4], [10], [21].
Differences between one subgroup and the rest were assessed using the F test for […] and the likelihood ratio test for categorical variables. The Bonferroni method was applied to correct for multiple hypotheses. The inventors applied the Tukey HSD test to find pairwise differences between groups and correct for multiple comparisons. Survival differences between subgroups were assessed using the Chi-squared test. Age was added to build a multivariate Cox model. For survival comparisons of BCNU/CCNU treatment between subgroups there were not enough observations to correct for age. After deleting all observations younger than 45, survival was no longer related to age. Significance was then determined using log rank. The Pearson goodness-of-fit test was used to assess the null hypothesis that proportions of G-CIMP tumors by subgroup and recurrent tumors by subgroup are equal to the proportions for all tumors by subgroup. P-values for these tests were calculated by Monte Carlo simulation since the counts of tumors by subgroup were too small to apply the large sample chi-square approximation.
Since AKT influences response to chemotherapy, while not wishing to be bound by any theory, the inventors believe AKT subgroups are predictive markers. Indeed, TCGA SL patients treated with BCNU or CCNU had longer median survival than those receiving other treatments (FIG. 5; median survival=5.8 vs. 1.05 years; p=0.03 after correcting for age; log rank). […] This finding indicates patients in the SL subgroup are sensitive to BCNU and CCNU.

Test [2] relates to Glioblastoma AKT subgroups (Mesenchymal, Secondary-Like). The test can be described thus: Kaplan Meier survival of TCGA patients receiving more vs. less temozolomide, by AKT subgroup. The format is in vivo, human. The text has this:
FIG. 17 depicts, in accordance with various embodiments of the invention, evidence that Mesenchymal patients benefit from temozolomide. Kaplan Meier survival curves were plotted within each subgroup for TCGA patients receiving more (≥3 cycles; red) vs. less (<3 cycles; black) temozolomide. […] Median survival was 0.6 years greater for Mesenchymal patients treated with more temozolomide (1.8 years) vs. less temozolomide (1.2 years); p=0.01 log rank; not age adjusted.
We plotted Kaplan Meier survival curves for patients treated with more vs. less TMZ in each AKT subgroup (FIG. 17). Since most TCGA patients received some TMZ, it was not possible to plot survival curves for patients treated with and without the drug. Instead, we compared survival in 2 treatment arms, those receiving more (≥3) vs. less (<3) cycles.
There was a tendency for patients who received more TMZ to not have received a nitrosourea. […] Without wishing to be bound by any particular theory, this may underlie the worse survival of patients receiving more TMZ in the Secondary-Like subgroup.

The results in this text go back to US10731221B2, “Diagnosing IDH1 related subgroups and treatment of cancer” (Dignity Health, priority 2009, dated 2020).

`O=NN(CCCl)C(=O)NCCCl` [BCNU, carmustine]: in test [1], the survival advantage was 4.5 year, the median survival is 5.8 years and the “sensitivity of patients in the SL subgroup” value was “sensitive”.

For the compound `O=NN(CCCl)C(=O)NC1CCCCC1` [CCNU, lomustine], in test [1], the survival advantage is on record as 4.5 year, the median survival stood at 5.8 years and the “sensitivity of patients in the SL subgroup” value is listed as “sensitive”.

`Cn1nnc2c(C(N)=O)ncn2c1=O` [temozolomide]: the median survival in test [2] (less temozolomide (<3 cycles)) came to 1.2 years; in test [2] (more temozolomide (≥3 cycles), p=0.01 log rank, not age adjusted) it was 1.8 years. Moreover, the “Median survival difference, more vs. less temozolomide” value in test [2] (≥3 vs. <3 cycles) is on record as 0.6 years.
